The values below come from patent publication US9326511B2, “Methods of inhibiting microbial biofilms” (priority 2008, dated 2016).

One data set concerns Enterococcus faecalis. Description: MIC (IsoSensitest broth) and MBC (subculture onto Columbia blood agar), reference strains and clinical isolates. To be noted: dark, 24 hours. In kind it is cell-based. Here is the method: (§1) The Minimum Inhibitory Concentrations (MIC's) for Compound 10, over a range of reference strains and clinical isolates, were determined using IsoSensitest® broth and Minimum Bactericidal concentrations (MBC's) determined by subculture onto Columbia blood agar.
(§2) • 1. A 5 mg/ml stock solution of Compound 10 was made up in water • 2. A series of dilutions were undertaken to produce a range of concentrations between 32-0.001 mg/L • 3. The test microorganisms were grown up overnight in IsoSensitest® broth • 4. The cultures were then diluted with fresh broth to a final concentration of 10^4 organisms/ml and placed on a shaker for 90 minutes at 37° C. • 5. 90 μl of the broth culture containing the microorganisms were transferred to each of 12 wells in a row in a microtitre tray and repeated in a control tray—four organisms per tray. • 6. 90 μL of the appropriate Compound 10 dilution was then added to each well containing organisms to give a final dilution series from 16 mg/L to 0.0005 mg/L • 7. The solutions were mixed well and incubated in the dark for 24 hours • 8. […] The MBC values were recorded after overnight incubation of the subcultures. • 10. Controls of uninoculated broth and broth plus inoculum were undertaken for each organism in each tray Results

In another data set the test system is Enterococcus faecium. Described as above. The format is cell-based. To be noted: dark, 24 hours. Here is the method: as §1, §2
Data set [1] deals with normal human epidermal keratinocytes (NHEK). The data set is described as follows: Toxicity against human skin cells, MTT-assay. The format is cell-based. To be noted: 5 min, 1 h, 4 h incubation, 0.01-10 μM, then 24 h in the dark. Here is the method: NHEK were incubated with different concentrations of Compound 10 for 5 min, 1 h and 4 h (0 μM, 0.01 μM, 0.1 μM, 1.0 μM, 10 μM). Cells were then incubated for 24 h in the dark. Toxicity was tested by standard MTT-assay. Cell viability was normalised to one, which means, the values of control cells were normalised to one. Red dotted line: 5 min incubation; black dotted: 1 h incubation; blue dotted: 4 h incubation only; (n=3, mean±SD).
(§3) Test compounds were screened for toxicity against cultured human skin cells using normal human epidermal keratinocytes (NHEK) and normal human dermal fibroblasts (NHDF), purchased from CellSystems Biotechnologie GmbH, Germany.
(§4) The NHEK and NHDF cells were used between passages 3 and 10. The cells were seeded with 7.5 and/or 15×10^4 cells/well (microtitre plate) and were allowed to attach overnight in an incubator (37° C., 5% CO2). After incubation with different concentrations of the selected photosensitisers for various times, the cells were incubated for 24 hours in the dark.
(§5) Toxicity was tested by standard MTT-assay (Mossman et al., 1983 J. Immunological Methods 65: 55-63). MTT is an indicator of metabolically active cells. Dependent on enzyme activity in mitochondria a colour reaction can be visualised, which can be measured by ELISA reader (540 nm). […]

In data set [2] the test system is normal human dermal fibroblasts (NHDF). Description: Toxicity against human skin cells, MTT-assay. In kind it is cell-based. To be noted: 5 min, 1 h, 4 h incubation, 0.01-10 μM, then 24 h in the dark. Here is the method: NHDF were incubated with different concentrations of Compound 10 for 5 min, 1 h and 4 h (0 μM, 0.01 μM, 0.1 μM, 1.0 μM, 10 μM). Cells were then incubated for 24 h in the dark. Toxicity was tested by standard MTT-assay. Cell viability was normalised to one, which means, the values of control cells were normalised to one. Grey dotted line: 5 min incubation; black dotted: 1 h incubation; black line: 4 h incubation; (n=3, mean±SD).
as §3, §4, §5

Data set [3] is described as follows: Acute dermal toxicity test (OECD 402). The format is in vivo. To be noted: 3.2 mM in a topical formulation. How it is done: Compound 10 was tested at 3.2 mM in a topical formulation in a standard acute dermal toxicity test to determine if any clinical or histological toxicity for the compound could be detected.
The acute toxicity protocol was based on OECD Guidelines for the testing of chemicals/Section 4—Health Effects Test Number 402: Acute Dermal Toxicity.

The subject of data set [4] is range of S. aureus strains including MSSA, healthcare-associated and community-associated MRSA. To be noted: previously shown (Love et al. 2008); cited from earlier work.

Regarding `C[N+](C)(C)CCCOc1ccc(-c2c3nc(cc4ccc([nH]4)c(-c4ccc(OCCC[N+](C)(C)C)cc4)c4nc(cc5ccc2[nH]5)C=C4)C=C3)cc1.[Cl-].[Cl-]` [Compound 10, 5,15-bis-[4-(3-Trimethylammonio-propyloxy)-phenyl]-porphyrin dichloride], the “Cpd 10 MIC” value in the data set with Enterococcus faecalis (strain E4 (clinical isolate)), in the data set with Enterococcus faecalis (strain E10 (clinical isolate)), in the data set on Enterococcus faecalis (strain E37 (clinical isolate)), in the data set with Enterococcus faecium (strain E5 (clinical isolate)), in the data set with Enterococcus faecium (strain E19 (clinical isolate)) and in the data set on Enterococcus faecium (strain E44 (clinical isolate)) was 0.5 µg/mL throughout. The “Innate toxicity (cell viability, MTT)” value in data set [1] and in data set [2] was “does not demonstrate an innate toxicity” throughout. In addition, the “Acute dermal toxicity (clinical and histological)” value in data set [3] is “does not result in any acute toxic effect”. The MBC50 in data set [4] is 1 µg/mL. For the same compound, the MIC50 in data set [4] is 1 µg/mL.
